One series relates to human MAO-B. The settings on record: read-out: IC50 human MAO-B; cited from earlier work.
Series [1] addresses T1, MAO-B (Homo sapiens, UniProt P27338).
T1 sequence (P27338 1-520): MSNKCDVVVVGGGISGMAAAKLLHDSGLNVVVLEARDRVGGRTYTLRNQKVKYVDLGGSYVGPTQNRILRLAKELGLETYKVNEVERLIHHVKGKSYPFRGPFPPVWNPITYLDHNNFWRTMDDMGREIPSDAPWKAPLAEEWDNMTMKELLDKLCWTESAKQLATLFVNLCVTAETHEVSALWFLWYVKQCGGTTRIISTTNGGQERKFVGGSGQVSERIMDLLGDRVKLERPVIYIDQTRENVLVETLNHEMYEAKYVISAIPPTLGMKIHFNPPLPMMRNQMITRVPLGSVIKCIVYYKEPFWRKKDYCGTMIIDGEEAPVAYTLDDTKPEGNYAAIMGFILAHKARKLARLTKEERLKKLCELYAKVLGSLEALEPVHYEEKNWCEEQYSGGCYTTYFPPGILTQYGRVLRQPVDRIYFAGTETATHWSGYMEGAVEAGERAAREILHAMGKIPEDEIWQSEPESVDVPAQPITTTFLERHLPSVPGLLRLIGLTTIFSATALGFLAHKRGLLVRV
The series is described as follows: Reversibility of MAO-B inhibition by dialysis. It counts as biochemical. The settings on record: for relative MAO-B activity, dialyzed (AD) / relative MAO-B activity, undialyzed (AU): MK6/MK12 6.0 nM, lazabemide 0.22 μM, pargyline 0.28 μM; for relative MAO-B activity, dialyzed (AD): after dialysis; for relative MAO-B activity, undialyzed (AU): preincubation 30 min; for reversibility of MAO-B inhibition: dialysis.

The nature of series [2]: Cytotoxicity on Vero cells, MTT method. It counts as cell-based, African green monkey. As to conditions: African green monkey, Vero cells (normal kidney epithelial cell line). (In general: Formazan colour is commonly taken as a measure of viable cells.)
Series [3] deals with Vero cells. The series is described as follows: Cytotoxicity on Vero cells, MTT method. It is filed as cell-based, African green monkey. As to conditions: 100 μg/mL, 24 h.
Series [4] relates to Vero cells. The series is described as follows: Intracellular ROS assay in H2O2-treated Vero cells. It counts as cell-based, African green monkey. The settings on record: 24 h drug treatment, vs H2O2-treated control.
In the next series the target is BChE (Equus caballus, UniProt P81908). The settings on record: 10 μM.
A further series deals with T2, MAO-A (Homo sapiens, UniProt P21397).
T2 sequence (P21397 1-527): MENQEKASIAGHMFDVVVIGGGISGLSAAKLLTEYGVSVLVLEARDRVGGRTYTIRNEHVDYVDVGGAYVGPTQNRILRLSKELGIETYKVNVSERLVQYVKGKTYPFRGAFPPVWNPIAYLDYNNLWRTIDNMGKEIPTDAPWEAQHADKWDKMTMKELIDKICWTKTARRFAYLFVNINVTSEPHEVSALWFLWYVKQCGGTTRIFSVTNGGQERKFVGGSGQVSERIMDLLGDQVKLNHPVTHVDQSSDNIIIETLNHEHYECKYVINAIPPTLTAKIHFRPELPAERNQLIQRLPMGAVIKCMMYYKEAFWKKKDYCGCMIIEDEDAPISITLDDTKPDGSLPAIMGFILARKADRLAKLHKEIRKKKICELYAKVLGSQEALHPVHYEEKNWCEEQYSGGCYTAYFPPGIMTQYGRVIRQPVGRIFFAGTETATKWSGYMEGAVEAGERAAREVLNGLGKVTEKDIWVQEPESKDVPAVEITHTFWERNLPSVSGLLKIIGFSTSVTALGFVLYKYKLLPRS
Nature of the series: biochemical. As to conditions: for remaining activity at 10 µM: read-out: residual activity (%) MAO-A.

A further series addresses BACE1 (Homo sapiens, UniProt P56817). The series is described as follows: biochemical. The settings on record: read-out: residual activity (%) BACE1.
A further series concerns the target AChE (Electrophorus electricus, UniProt O42275). Nature of the series: AChE inhibition. The settings on record: 10 μM.
The target of series [5] is T1, MAO-B. The series is described as follows: MAO-B inhibition, recombinant enzyme, benzylamine substrate. It counts as biochemical. As to conditions: for SI (MAO-B compared with MAO-A): IC50 (MAO-A)/IC50 (MAO-B); for IC50: IC50 MAO-B; for remaining activity at 1 µM: read-out: residual activity (%) MAO-B.
Series [6] concerns the target T1, MAO-B. The series is described as follows: MAO-B enzyme kinetics, Lineweaver–Burk and secondary plots. It is filed as biochemical.
Series [7] relates to MAO-B. As to conditions: cited from earlier work.

“Also recorded” adds a separate entry of the source. Bounds are passed on as bounds.

Chain of AChE (O42275 24-633): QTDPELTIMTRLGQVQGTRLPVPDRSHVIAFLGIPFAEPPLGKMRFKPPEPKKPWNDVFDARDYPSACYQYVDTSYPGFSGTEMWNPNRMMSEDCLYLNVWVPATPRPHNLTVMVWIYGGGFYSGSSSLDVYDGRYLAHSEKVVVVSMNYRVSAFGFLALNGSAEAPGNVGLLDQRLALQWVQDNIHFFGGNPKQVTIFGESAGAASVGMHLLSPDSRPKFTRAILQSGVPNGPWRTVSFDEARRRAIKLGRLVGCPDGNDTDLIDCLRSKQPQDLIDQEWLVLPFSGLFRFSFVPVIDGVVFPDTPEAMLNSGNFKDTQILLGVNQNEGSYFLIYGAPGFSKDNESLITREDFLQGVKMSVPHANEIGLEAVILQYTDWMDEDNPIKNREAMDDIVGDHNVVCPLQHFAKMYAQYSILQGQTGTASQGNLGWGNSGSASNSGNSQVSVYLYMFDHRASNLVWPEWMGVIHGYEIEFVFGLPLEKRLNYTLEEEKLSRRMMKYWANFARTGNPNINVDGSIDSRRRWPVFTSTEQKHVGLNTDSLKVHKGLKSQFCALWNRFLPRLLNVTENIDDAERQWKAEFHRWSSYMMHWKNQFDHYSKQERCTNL
Chain of BACE1 (P56817 46-501): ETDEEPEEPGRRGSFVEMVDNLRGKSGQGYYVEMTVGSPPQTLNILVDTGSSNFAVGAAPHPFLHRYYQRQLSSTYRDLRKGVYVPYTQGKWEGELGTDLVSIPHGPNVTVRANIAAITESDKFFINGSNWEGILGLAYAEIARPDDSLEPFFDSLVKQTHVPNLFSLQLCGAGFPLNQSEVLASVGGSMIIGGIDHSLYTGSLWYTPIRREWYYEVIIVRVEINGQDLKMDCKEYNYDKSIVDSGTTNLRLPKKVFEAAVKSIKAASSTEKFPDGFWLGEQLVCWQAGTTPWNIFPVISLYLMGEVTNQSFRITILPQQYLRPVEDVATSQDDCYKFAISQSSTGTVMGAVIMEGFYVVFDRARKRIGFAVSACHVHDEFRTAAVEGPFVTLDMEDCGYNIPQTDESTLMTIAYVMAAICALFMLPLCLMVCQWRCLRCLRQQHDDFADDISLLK
Chain of BChE (P81908 whole entry): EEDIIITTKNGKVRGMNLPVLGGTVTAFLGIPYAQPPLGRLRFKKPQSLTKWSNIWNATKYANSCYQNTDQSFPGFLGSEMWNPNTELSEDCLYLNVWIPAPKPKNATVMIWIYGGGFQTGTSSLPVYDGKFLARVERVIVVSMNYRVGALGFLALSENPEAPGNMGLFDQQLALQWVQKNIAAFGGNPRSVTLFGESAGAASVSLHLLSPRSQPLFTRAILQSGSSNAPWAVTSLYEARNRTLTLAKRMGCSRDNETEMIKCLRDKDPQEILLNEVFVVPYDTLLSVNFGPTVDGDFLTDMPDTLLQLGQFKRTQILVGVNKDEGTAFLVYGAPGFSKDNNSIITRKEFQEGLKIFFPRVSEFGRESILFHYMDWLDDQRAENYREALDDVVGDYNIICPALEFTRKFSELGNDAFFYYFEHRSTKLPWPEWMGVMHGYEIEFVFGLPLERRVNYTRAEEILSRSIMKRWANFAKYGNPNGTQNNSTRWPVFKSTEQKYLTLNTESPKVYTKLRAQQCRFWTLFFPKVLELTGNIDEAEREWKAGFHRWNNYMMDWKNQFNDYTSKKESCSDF

Broadly, the IC50 is the concentration that inhibits the measured activity by half. Consider `O=C(/C=C/C=C/c1ccc(Cl)cc1)c1ccc(O)cc1O` [(2E,4E)-5-(4-chlorophenyl)-1-(2,4-dihydroxyphenyl)penta-2,4-dien-1-one], for which the IC50 in the series on human MAO-B was 11.3 nM.

With `COc1ccc(C(=O)/C=C/C=C/c2ccc(Cl)cc2)c(O)c1` [(2E,4E)-5-(4-chlorophenyl)-1-(2-hydroxy-4-methoxyphenyl)penta-2,4-dien-1-one], in the series on human MAO-B, the IC50 was 4.51 nM.

The term viability denotes the share of living cells, or the viability signal relative to a control. Higher therefore signals better survival. Regarding `O=C(/C=C/C=C/c1ccccc1)c1ccc(Br)cc1` [MK6, (2E,4E)-1-(4-Bromophenyl)-5-phenylpenta-2,4-dien-1-one], on MAO-B [1], the “relative MAO-B activity, dialyzed (AD)” value is listed as 79.2%; the “relative MAO-B activity, undialyzed (AU)” value was 34.9%; the “reversibility of MAO-B inhibition” value is listed as “reversible inhibitors”. The viability at 24 h, 80 μg/mL in [2] is over 70%. Moreover, in the series on Vero cells [3], the “toxicity by cellular morphology, phase-contrast microscopy” value (“toxicity by cellular morphology” for short) was “no signs of toxicity”. Besides, the “intracellular ROS scavenging” value in the series with Vero cells [4] was “significant scavenging effect of reactive oxygen species; also recorded: significant ROS scavenging effect”. For the same compound, the “residual activity (%) BChE” value on BChE is 97.5 ± 3.58%. Further, on MAO-A, the IC50 was 20600 ± 1020 nM and the remaining activity at 10 µM is 84 ± 1.22%. The remaining activity at 10 µM at BACE1 stood at 74.1 ± 1.48%. Besides, the “residual activity (%) AChE” value on AChE amounted to 74.7 ± 0.66%.

In general, Ki refers to a dissociation constant, usually derived from enzyme kinetics or from competition with a known ligand. Take `COc1ccc(/C=C/C=C/C(=O)c2ccc(F)cc2)cc1` [MK12, (2E,4E)-1-(4-Fluorophenyl)-5-(4-methoxyphenyl)penta-2,4-dien-1-one]: at MAO-B [5], the “SI (MAO-B compared with MAO-A)” value was 1780.5, the IC50 was found to be 3.22 ± 0.04 nM and the remaining activity at 1 µM was -2.71%. Moreover, the “times higher inhibitory activity than pargyline (MAO-B)” value on MAO-B [5] (vs reference irreversible MAO-B inhibitor pargyline) was 44 times. Further, the “times more potent than lazabemide (MAO-B)” value on MAO-B [5] (vs reference reversible MAO-B drug lazabemide) is reported as 34 times. This compound also gave a Ki at MAO-B [6] of 3 ± 0.27 nM. The “inhibition type for MAO-B” value on MAO-B [6] (Lineweaver–Burk plots) is “competitive inhibitors”. On MAO-B [1], the “relative MAO-B activity, dialyzed (AD)” value is listed as 74.7%; the “relative MAO-B activity, undialyzed (AU)” value is recorded as 33.4%; the “reversibility of MAO-B inhibition” value was “reversible inhibitors”. The same compound gave a viability at 24 h, 40 μg/mL in series [2] of over 80%. In the series on Vero cells [3], the “toxicity by cellular morphology” value is recorded as “most toxic of the four tested compounds”. Moreover, the “intracellular ROS scavenging” value with Vero cells [4] was “significant scavenging effect of reactive oxygen species; also recorded: significant ROS scavenging effect”. The “residual activity (%) BChE” value on BChE was determined as 94.6 ± 1.11%. At MAO-A, the IC50 was determined as 5700 ± 720 nM and the remaining activity at 10 µM was found to be 40.9 ± 1.24%. The remaining activity at 10 µM on BACE1 is 81.4 ± 1.03%. Further, the “residual activity (%) AChE” value at AChE is given as 93.3 ± 0.73%.

With `COc1ccc(/C=C/C=C/C(=O)c2ccccc2)cc1` [MK14, (2E,4E)-5-(4-Methoxyphenyl)-1-phenylpenta-2,4-dien-1-one], at MAO-B [5], the “SI (MAO-B compared with MAO-A)” value was 3871.5, the half-inhibitory concentration (IC50) was determined as 4.89 ± 0.17 nM and the remaining activity at 1 µM was -0.95%. The compound also showed a viability at 24 h, 60 μg/mL in series [2] of over 80%. The “toxicity by cellular morphology” value in the series with Vero cells [3] is “no signs of toxicity”. Also, the “intracellular ROS scavenging” value in the series with Vero cells [4] was “significant scavenging effect of reactive oxygen species; also recorded: significant ROS scavenging effect”. Also, the “residual activity (%) BChE” value at BChE came out at 89.0 ± 1.55%. In addition, at MAO-A, the IC50 was 18900 ± 1020 nM and the remaining activity at 10 µM was found to be 61.4 ± 6.27%. The remaining activity at 10 µM on BACE1 came out at 77.3 ± 1.23%. Also, the “residual activity (%) AChE” value at AChE is on record as 84.7 ± 5.62%.

Turning to `O=C(C=CC=Cc1ccccc1)c1ccc(N2CCOCC2)cc1` [MO10, 1-[4-(morpholin-4-yl)phenyl]-5-phenylpenta-2,4-dien-1-one], in the series on MAO-B [7], the SI value is reported as 366.13. For the same compound, in the series on MAO-B [7] (read-out: IC50 MAO-B), the half-inhibitory concentration (IC50) was 44 nM. Besides, the inhibitory constant (Ki) at MAO-B [7] (read-out: Ki MAO-B) is 8 ± 3 nM.

The values above are taken from publication PMC8908507 (ACS Omega, 2022).
